# Values quoted from earlier work as cited in patent publication US20030157036A1, “Topical dapsone for the treatment of acne” (priority 2002, published 2003).
# System: P. acnes
compound,measurement,value
"Nc1ccc(S(=O)(=O)c2ccc(N)cc2)cc1 [Dapsone, bis(4-aminophenyl)sulfone]",minimum inhibitory concentration,about 1 microgram per milliliter
